# Test results from US12686809B2, “Methods and formulations for treating oil-containing porous media for oil recovery” (UNIVERSITY OF WYOMING, priority 2020, dated 2026).
# Experiment: Krafft and cloud point temperatures / solution cloudiness at ambient conditions
# Format: physicochemical
# Details: about 0.1 wt % in blank brine; about 22° C., ambient conditions
# Procedure: Krafft and cloud point temperatures at ambient conditions: At ambient conditions, the Krafft point and cloud point temperatures were determined as follows. Fresh brine solutions containing about 0.1 wt % of surfactant solution were prepared and poured into 25 ml glass vials. The vials were capped and placed upright in a water bath and/or heater at an initial temperature of about 22° C. […] For each increment, it typically took at least 20 minutes for the brine to reach thermal equilibrium (temperature stabilization) with the water bath. The cloud and Krafft points were determined visually by recording the temperatures at which cloudiness was observed or disappeared. Images of the brine solutions were captured after each temperature stabilization.
# The effect of the hydrophobic (alkyl) chain length on the stability and aqueous solubility/cloudiness of cationic surfactants was examined by measuring Krafft points at elevated pressure and temperature were performed. FIG. 15 is a series of exemplary images of solutions of cationic surfactants having a bromide head with increasing carbon atom numbers from left to right—DTAB (left panel), CTAB (center panel), and TODAB (right panel). For these tests, each surfactant was made into a surfactant solution (about 0.1 wt % in blank brine). The images were captured at about 22° C.
# (left panel) and about 75° C. (right panel).
# (§1) The cloud points of certain nonionic surfactants were measured at high pressure (about 6,000 psi) and temperature. […] (center panel) and about 99.9° C. (right panel), at a pressure of about 6,000 psi.
row,Structure (SMILES),solution clarity/cloudiness (in words)
1,"CCCCCCCC[N+](C)(C)C.[Cl-] [TOAC, Trimethyloctylammonium chloride]",clearest
2,"CCCCCCCC[N+](C)(C)C.[Br-] [TOAB, Trimethyloctylammonium bromide]",already clear at ambient conditions
3,"CCCCCCCCCCCCCCCCCC[N+](C)(C)C.[Cl-] [TSAC, Trimethyloctadecylammonium chloride]",cloudiest

# Same assay, conditions: about 0.1 wt % in blank brine; heated while stirring; ambient pressure
row,Structure (SMILES),temperature at which the solution became and stayed clear
1,"CCCCCCCCCCCCCCCCCC[N+](C)(C)C.[Cl-] [TSAC, Trimethyloctadecylammonium chloride]",about 75 °C

# Experiment: Krafft and cloud point temperatures at reservoir conditions (IFT cell, 6,000 psi)
# Format: physicochemical
# Details: about 0.1 wt % in blank brine; about 6,000 psi
# Procedure: as §1
# (right panel), at a pressure of about 6,000 psi.
row,Structure (SMILES),Krafft point
1,"CCCCCCCCCCCCCCCCCC[N+](C)(C)C.[Cl-] [TSAC, Trimethyloctadecylammonium chloride]",about 40 °C

# Experiment: Critical micelle concentration by surface tension (pendant drop) at ambient conditions
# Format: physicochemical
# Details: surface tension against air
# Procedure: Pendant drop method: The pendant drop method was mainly utilized when the density of the suspended phase is higher than that of the bulk phase. The same device as that used in the captive/rising bubble method is used for the pendant drop method. The method consists of a drop suspended from a needle to determine interfacial and surface tension of liquid/liquid and liquid/gas systems. The critical micelle concentration (CMC) of cationic surfactants was measured using surface tension measurements between the surfactant solutions and air at ambient conditions. […] Therefore, generally, the measurements were performed at a concentration above CMC (about 0.1 wt %), which is the one typically used in the field.
# CMC measurements were performed to, e.g., investigate the effect of the hydrophobic chain length on the behavior of cationic surfactant molecules at the interface. […] As a baseline, the surface tension of blank brine was measured to be about 75.4 mN/m.
# FIGS. 18A-18C show exemplary data for CMC measurements of surfactants with chloride heads and various alkyl chain lengths and depicting the variations of surface tension with concentration. Specifically, FIGS. 18A, 18B, and 18C show exemplary surface tension data for DTAC, CTAC, and TSAC.
row,Structure (SMILES),CMC
1,"CCCCCCCCCCCCCCCC[N+](C)(C)C.[Cl-] [CTAC, Cetyltrimethyl ammonium chloride]",about 0.003 wt %
2,"CCCCCCCCCCCCCCCCCC[N+](C)(C)C.[Cl-] [TSAC, Trimethyloctadecylammonium chloride]",about 0.001 wt %
3,"CCCCCCCCCCCC[N+](C)(C)C.[Cl-] [DTAC, Dodecyltrimethylammonium chloride]",about 0.005 wt %

# Experiment: IFT between surfactant solutions and reservoir crude oil at ambient conditions (spinning drop)
# Format: physicochemical
# Details: ~0.1 wt % in blank brine
# Procedure: Spinning drop method: The spinning drop method was utilized to measure ultra-low IFT values. The instrumentation included a KRÜSS Spinning Drop Tensiometer was employed and the spinning drop method was performed as follows. A crude oil droplet was launched from a capillary plug into a capillary tube filled with the surfactant solution. While the glass capillary tube was rotating, the software-controlled instrument measured the IFT between oil and brine by analyzing the drop shape which depends on the balance between interfacial and centrifugal forces. At low rotational speeds, the IFT is the dominating force and the droplet is spherical in shape. In this case the software uses Young-Laplace equation to calculate IFT. When the angular velocity is high, the droplet is elongated (length is at least 4 times the diameter) and Vonnegut's equation is used to calculate the IFT.
# (§2) Measurement of the IFT between surfactant solutions/reservoir oil at ambient conditions were first performed to, e.g., examine the impact of the hydrophobic chain length on the interfacial properties of cationic surfactants. For these measurements, a KRÜSS Spinning Drop Tensiometer was used.
row,Structure (SMILES),γ (interfacial tension surfactant solution/reservoir oil) [mN/m]
1,"CCCCCCCCCCCCCCCC[N+](C)(C)C.[Br-] [CTAB, Hexadecyltrimethylammonium bromide]",0.15
2,"CCCCCCCCCCCCCCCC[N+](C)(C)C.[Cl-] [CTAC, Cetyltrimethyl ammonium chloride]",0.11
3,"CCCCCCCC[N+](C)(C)C.[Cl-] [TOAC, Trimethyloctylammonium chloride]",5.05
4,"CCCCCCCC[N+](C)(C)C.[Br-] [TOAB, Trimethyloctylammonium bromide]",8.4
5,"CCCCCCCCCCCC[N+](C)(C)C.[Br-] [DTAB, Dodecyltrimethylammonium bromide]",1.1
6,"CCCCCCCCCCCC[N+](C)(C)C.[Cl-] [DTAC, Dodecyltrimethylammonium chloride]",1.6
7,"CCCCCCCCCCCCCCCCCC[N+](C)(C)C.[Br-] [TODAB, Trimethyloctadecylammonium bromide]",0.07

# Experiment: Density difference between surfactant solution and crude oil
# Format: physicochemical
# Details: ~0.1 wt % in blank brine vs reservoir crude oil; ambient conditions
# Procedure: Density: The density of the two phases (oil and brine; or oil and surfactant solution) was measured at atmospheric pressure and 22° C. using a DMA45 density meter from Anton Paar. The density of the two phases was also measured at reservoir conditions (120° C., 6000 psi) using an in-line density meter (DMA HPM, Anton Paar).
# as §2
row,Structure (SMILES),Δρ (change in density) [g/mL]
1,"CCCCCCCCCCCCCCCC[N+](C)(C)C.[Br-] [CTAB, Hexadecyltrimethylammonium bromide]",0.382
2,"CCCCCCCCCCCCCCCC[N+](C)(C)C.[Cl-] [CTAC, Cetyltrimethyl ammonium chloride]",0.3834
3,"CCCCCCCC[N+](C)(C)C.[Cl-] [TOAC, Trimethyloctylammonium chloride]",0.3822
4,"CCCCCCCC[N+](C)(C)C.[Br-] [TOAB, Trimethyloctylammonium bromide]",0.3823
5,"CCCCCCCCCCCCCCCCCC[N+](C)(C)C.[Cl-] [TSAC, Trimethyloctadecylammonium chloride]",0.3829
6,"CCCCCCCCCCCC[N+](C)(C)C.[Br-] [DTAB, Dodecyltrimethylammonium bromide]",0.3835
7,"CCCCCCCCCCCC[N+](C)(C)C.[Cl-] [DTAC, Dodecyltrimethylammonium chloride]",0.3826
8,"CCCCCCCCCCCCCCCCCC[N+](C)(C)C.[Br-] [TODAB, Trimethyloctadecylammonium bromide]",0.3831

# Experiment: IFT between surfactant solutions and reservoir oil at reservoir conditions
# Format: physicochemical
# Details: about 100° C. and about 1,000 psi
# Procedure: Captive/rising bubble method: The captive/rising bubble method was utilized to measure the dynamic IFT and contact angle at reservoir conditions. This method was performed as follows. The lighter phase was injected through a needle to form a bubble inside the heavier phase. The IFT between the two phases was calculated from the shape of the bubble using the Young-Laplace equation through Axisymmetric Drop Shape Analysis (ADSA). The state-of-the-art interfacial tension and contact angle (IFT/CA) apparatus adopted for the measurements is described and used by S. Saraji et al., Wettability of Supercritical Carbon Dioxide/Water/Quartz Systems: Simultaneous Measurement of Contact Angle and Interfacial Tension at Reservoir Conditions, Langmuir, 29 (2013) 6856-6866. This experimental setup can operate at elevated temperature (up to 200° C.) and pressure (up to 8000 psi). […] For contact angle measurement, a droplet was injected from the needle onto the solid substrate and monitored by capturing several images with time and analyzing them using ImageJ software.
# Pendant drop method: The pendant drop method was mainly utilized when the density of the suspended phase is higher than that of the bulk phase. […] The critical micelle concentration (CMC) of cationic surfactants was measured using surface tension measurements between the surfactant solutions and air at ambient conditions. […]
row,Structure (SMILES),IFT reduction relative to the blank brine
1,"CCCCCCCC[N+](C)(C)C.[Br-] [TOAB, Trimethyloctylammonium bromide]",about 7 mN/m

# Experiment: Microemulsion phase behavior of surfactant solution/crude oil
# Format: physicochemical
# Details: about 0.1 wt % in blank brine/crude oil 1:1; about 80° C. versus ambient
# Procedure: Microemulsion phase behavior: The microemulsion phase behavior of surfactants with different structures was investigated with respect to temperature. The effect of surfactant hydrophobic chain length on phase behavior was examined at ambient temperature (about 22° C.) and at elevated temperature (about 80° C.). For these experiments, glass pipettes were filled with brine/crude oil at a ratio of about 1:1 or surfactant solution/crude oil at a ratio of about 1:1. The pipettes were then sealed with a torch and shaken at the speed of about 250 rpm for about 24 hours (h). The pipettes were then monitored for several days and images were recorded.
# Microemulsion phase behavior tests can generally be utilized to characterize surfactant stability. The phase behavior of surfactants can depend on distinct parameters such as temperature, surfactant concentration, and/or brine salinity. The effect of temperature on phase behavior was systematically investigated for various surfactants. Here, the phase behavior test was first performed on a pipette containing blank brine and the crude oil.
# FIG. 13 is a series of exemplary images showing the phase behavior of cationic surfactants with a chloride head—TOAC, DTAC, CTAC, and TSAC—at ambient temperatures (left panel) and at about 80° C. (right panel). FIG. 14 is each a series of exemplary images showing the phase behavior of cationic surfactants with a bromide head—TOAB, DTAB, CTAB, and TODAB—at ambient temperatures (left panel) and at about 80° C. (right panel). For these tests, each surfactant was made into a surfactant solution (about 0.1 wt % in blank brine).
row,Structure (SMILES),phase behavior (in words)
1,"CCCCCCCC[N+](C)(C)C.[Cl-] [TOAC, Trimethyloctylammonium chloride]",less influenced by temperature
2,"CCCCCCCC[N+](C)(C)C.[Br-] [TOAB, Trimethyloctylammonium bromide]",less influenced by temperature
3,"CCCCCCCCCCCCCCCCCC[N+](C)(C)C.[Cl-] [TSAC, Trimethyloctadecylammonium chloride]",poor solubility
4,"CCCCCCCCCCCCCCCCCC[N+](C)(C)C.[Br-] [TODAB, Trimethyloctadecylammonium bromide]",poor solubility

# Same assay, conditions: about 80° C.
row,Structure (SMILES),volume of surfactant phase formed between oil and brine
1,"CCCCCCCCCCCCCCCCCC[N+](C)(C)C.[Cl-] [TSAC, Trimethyloctadecylammonium chloride]",about 0.1 cm^3
2,"CCCCCCCCCCCCCCCCCC[N+](C)(C)C.[Br-] [TODAB, Trimethyloctadecylammonium bromide]",about 0.1 cm^3
